From patent US9023853B2, “Janus kinase 2 (JAK2) inhibitor for the treatment of lupus” (Cephalon, Inc., priority 2010, dated 2015)

Legend:
Format in all cases: in vivo, mouse
MRL/lpr mice = assay: Lymphomegaly, splenomegaly and spleen leukocyte counts in MRL/lpr lupus model; details: for total spleen leukocyte counts compared to vehicle: p<0.05; for mice without lymphomegaly: vehicle 0%
Experimental: Six week old lupus-prone, female, MRL/lpr (Jackson Labs, #000485) and non-lupus prone control MRL/MpJ (Jackson Labs, #000486) mice were obtained from Jackson Laboratories (Bar Harbor, Me.) at 6-weeks of age. Spontaneous SLE-prone NZBWF1/J (NZM) (catalog no. 100008) female mice and non-lupus prone (within time from of experiment) NZW/LacJ (catalog no. 001058) female mice were obtained from Jackson Laboratories (Bar Harbor, Me.) at 15-weeks of age. All mice were maintained on a […] light/dark cycle, with food and water available ad libitum. All experimental animal procedures were approved by and in accordance to the regulations of the Institutional Animal Care and Use Committee (IACUC) of Cephalon, Inc; approved IACUC protocol #03-040 and #03-03-041. […] Due to this impaired tolerance mechanism, a percentage of all T and B cells that enter the periphery have a high likelihood of responding to self protein/tissues and thus initiate autoimmunity early in life. The MRL/lpr model mice develop several chronic inflammatory disease-like symptoms that are characteristic of early and late lupus including the generation of anti-nuclear antibodies, arthritis, dermatological manifestations, immunocomplex-mediated glomerulonephritis leading to proteinuria and eventual death. Lesser characterized phenomenon are CNS and cardiac manifestations, both of which are more common in humans. […] Mortality is higher in the females and occurs around 25 weeks of age, renal disease includes glomerulonephritis, glomerular infiltrates, sclerosis and vasculitis. Both splenomegaly and lymphomegaly associated with dermatitis can also be observed. […] Mice were tracked on an individual basis.

C3 = assay: Serum complement C3 in MRL/lpr mice
Description: MRL/lpr mice were first randomized, initial bleeds collected, and body weights recorded for baseline measurements (FIG. 1). All mice were individually ear tagged and were monitored throughout the entire experiment (e.g., “Group#-Cage letter-Mouse#”, so “3B5”=Group 3 (G3), cage B, mouse#5). Mice were age-matched and treatment started at 6-8 weeks of age. Cheek bleeds and urine collection continued weekly throughout the experiment. Mice were individually tracked for several parameters including cytokine and ANA levels, proteinuria, body mass, lymphomegaly, general health, and mortality. All parameters were evaluated bi-monthly except mortality which was monitored daily. All groups consisted of a minimum of at least 10-12 mice per group. Ex vivo experiments included flow cytometry analyses for plasma cells, serum complement C3 and ANA levels; urine protein and leukocytes, serum cytokine profiling, renal histo pathology, and determination of compound levels (pharmacokinetics (PK)) in the spleen, kidney and plasma. Mice were tracked on an individual basis. For all data, mice were grouped into populations and data graphed as mean±SEM. Bi-monthly observations and data collected were recorded for each group, except mortality which was performed daily. End-stage readouts were analyzed as described in the MATERIALS AND METHODS section (above) and in FIG. 1. […]

IL-12 = assay: Serum IL-12 (Luminex) in NZM mice
Experimental: For the processing of serum samples for cytokine analysis, frozen plasma at −80° C. was thawed on ice, vortexed, and centrifuged for 10 minutes to remove debris and aggregates. A total of 25-50 μL of serum was used for Luminex® assays following the manufacturer's instructions. Ten different mouse cytokines were measured using the mouse cytokine 10-plex bead kit (Invitrogen, Carlsbad, Calif., no. LMC0001). Briefly, filter plates (Millipore, Billerica, Mass., no. MAIPSWU10), were pre-wet with 200 μL of wash solution (kit component) and 25 μL of beads were added per well. […]
Age mated, female, NZM or NZW/LacJ, mice were matured for the study of lupus nephritis for a total of 7 months or 210 days at which time urine was collected for proteinuria detection. Mice with 0.5-1.0 mg/ml of urine protein as determined by an optical density-based total protein precipitation assay and cross-checked for 30-300 mg/dl of protein as determined by a stick assay were considered proteinuria positive and selected for study entry. […] End-stage lupus nephritis was evaluated by histopathology and scored by a board certified pathologist for the assessment of total renal damage in diseased animals using the scoring method described by Smith et al (Smith, Dong et al. 2007). […]

CN1CCN(c2cccc(Nc3nc4c(-c5ccc(S(C)(=O)=O)cc5)cccn4n3)c2)CC1 [COMPOUND A, [8-(4-methanesulfonyl-phenyl)-[1,2,4]triazolo[1,5-a]pyridin-2-yl]-[3-(4-methyl-piperazin-1-yl)-phenyl]-amine]
spleen mass decrease vs. vehicle (MRL/lpr mice; 55 mg/kg p.o. b.i.d.): 49.4% | total spleen leukocyte counts compared to vehicle (MRL/lpr mice; 55 mg/kg p.o. b.i.d.): reduced total leukocyte counts | mice without lymphomegaly (MRL/lpr mice; 55 mg/kg p.o. b.i.d.): 100% | spleen mass decrease vs. vehicle (MRL/lpr mice; 100 mg/kg p.o. b.i.d.): 74.1% | spleen mass relative to non-lupus control animal (MRL/Mp; 98 mg) (MRL/lpr mice; 100 mg/kg p.o. b.i.d.): decreased spleen mass to the level of a non-lupus control animal | total spleen leukocyte counts compared to vehicle (MRL/lpr mice; 100 mg/kg p.o. b.i.d.): reduced total leukocyte counts | mice without lymphomegaly (MRL/lpr mice; 100 mg/kg p.o. b.i.d.): 100% | serum C3 increase over vehicle (C3; 55 mg/kg p.o. b.i.d.): 51.4% | serum C3 increase over vehicle (C3; 100 mg/kg p.o. b.i.d.): 52.5% | serum IL-12 decrease compared to vehicle (IL-12; 55 mg/kg): 99.4% | serum IL-12 decrease compared to vehicle (IL-12; 100 mg/kg): 99.9%
